Test results published in patent US20230150951A1, “2,5- OR 2,6-DISUBSTITUTED HYDROQUINONE DERIVATIVES WITH AT LEAST ONE CARBOXY, SULFO OR AMIDO GROUP USEFUL AS MEDICAMENTS” (OM PHARMA SA, priority 2020, published 2023).

Tested on: bleomycin induced pulmonary fibrosis
Assay: Bleomycin induced pulmonary fibrosis, 21 days
Assay type: in vivo, mice
Conditions: day 21; pirfenidone 100 mg/kg, IVc-059a 15 mg/kg
Method: A total of 40 male Balb/c mice aged 8-10 weeks were used for the study.
Mice were anesthetized using an IP injection of xylazine and ketamine. Once an appropriate plane of anaesthesia was achieved, animals had 1.0 U/kg bleomycin sulphate instilled via intratracheal route. The total volume of liquid was 50 μL.
Dosing of IV and positive control (pirfenidone) started 24 hours after bleomycin instillation.
Drug solution was formulated immediately prior to dosing. For a dose of 15 mg/kg (enough for 12, 30 g mice) 4.5 mg of compound was weighed out. 75 μl (5%) DMSO added and mixed until drug is in solution. 150 μl (10%) solutol added and vortexed gently, 150 μl (10%) PEG400 added and vortexed gently. 1000 μl PBS (pH7) was added and matrix was measured to ensure pH 7.0 was maintained. Remaining PBS (to a total of 1500 μl) was added. Compound remained in solution. […]
Ashcroft score: Lungs from each animal were FFPE, sectioned and stained with H&E according to an in-house protocol. […] Each lung was scored using the Ashcroft grading system to measure degree of inflammation/fibrosis as per Hubner et al., 2008. […]
An entire lung from each animal was formalin fixed and stored in 70% ethanol. […] Percent area covered by trichrome staining was quantified using Qupath and ImageJ software.

With `O=C(O)c1cc(O)cc(CS(=O)(=O)Cc2cc(O)cc(C(=O)O)c2O)c1O` [IVc-059a, 3-((2,5-Dihydroxy-3-carboxyphenyl)methylsulfonylmethyl)-2,5-dihydroxybenzoic acid] the “Onset of fibrosis in mouse lung (Ashcroft score)” value was “reduced the onset of fibrosis in mouse lung”.
